pIC50: −log10 of the molar value. Where a name gives a salt, the structure may show the parent alone. Where only a bound is given, the exact number is not on record here.

In assay [1] the target is T1, Cytoplasmic-MDM2 (Homo sapiens, UniProt Q00987).
T1 construct: endogenous in cells; host or cells: Hpac/ZR75.1
The experiment in a line: MDM2 degradation by western blot and immunofluorescence, cytoplasmic MDM2 (Hpac/ZR75.1 cells, absence of C-MDM2). It is filed as cell-based. Conditions: Hpac/ZR75.1 (absence of C-MDM2), degradation efficacy; for Dmax: human. The procedure:
(§1) MDM2 degradation is measured by western blot and immunofluorescence.
(§2) Cells were seeded in 6-well plates (Sarsted) in complete DMEM medium as to obtain triplicates for each condition (500 000 cells/well). After 24 hours, the compounds were added to the cells. Then, 18 hours later cells were collected for western blotting or immunofluorescence. • Western Blot: Cells were collected in Laemmli buffer, boiled and analyzed in 8% acrylamide gel. • Immunofluorescence: Cancer cells were fixed with paraformaldehyde (PFA) 4% for 15 minutes then permeabilized for 15 minutes at RT with phosphate-buffered saline (PBS) Triton 0.1% and blocked with Phosphate buffered saline-[…] (PBS-BSA) 0.3% for 1 hour at RT before overnight incubation at 4° C. with an anti-mouse monoclonal antibody against MDM2 (MABE340 Millipore). Immunodetection was performed using an Alexa 488-conjugated anti-mouse IgG antibody (Thermo Fisher) for 45 minutes at RT. Cover glasses were mounted with Mowiol (Biovalley) and DAPI (Sigma) before analysis on a Zeiss apotome.
In general terms: Immunoblotting shows a protein as a band on a membrane.

The subject of assay [2] is Hpac/ZR75.1 cells. Briefly: Cell survival, Sulforhodamine B assay (SRB assay), cancer cells not exhibiting recruitment of MDM2 to chromatin. It is filed as cell-based. The procedure: (§3) Cell survival after MDM2 inhibitor treatment (IC50) was determined using the Sulforhodamine B assay (SRB assay).
(§4) Cells were seeded in 96-well plates (Sarsted) in complete DMEM medium as to obtain triplicates for each condition (5 000 cells/well). After 24 hours, serial dilutions of the indicated compounds were added to the cells. Then 48 hours later, cells were fixed by adding a 10% Trichloroacetic acid solution and stained with a 0,4% SRB solution in 1% acetic acid. Fixed SRB was finally dissolved in 10 mM Tris-HCl solution and 560 nm absorbance was read using a PHERAstar FSX plate reader.
(In general: Sulforhodamine B stains cellular protein and so reports cell mass.)

Assay [3] addresses T2, Chromatin-MDM2 (Homo sapiens, UniProt Q00987).
T2 construct: endogenous in cells; host or cells: IB111
The experiment in a line: MDM2 degradation by western blot and immunofluorescence, chromatin-bound MDM2 (IB111 cells dependent on C-MDM2). The assay is classed as cell-based. The note with it: IB111 (presence of C-MDM2), degradation efficacy; for Dmax: human. The procedure:
as §1, §2

Assay [4] concerns IB111 cells. Briefly: Cell survival, Sulforhodamine B assay (SRB assay), cancer cells exhibiting recruitment of MDM2 to chromatin. It is filed as cell-based. The procedure: as §3, §4
Assay [5] concerns p53 wild type, p53 mutant and p53 null cancer cells. The note with it: cited from earlier work.
For assay [6], the system named is MDM2 protein. Conditions: WO2016/049453 and Wang et al. 2014; cited from earlier work.
Assay [7] concerns MDM2-p53 interaction. Conditions: WO2016/049453 and Wang et al. 2014; cited from earlier work.
Assay [8] relates to liposarcoma cells IB111. The experiment in a line: In vivo anti-tumor efficacy in nude mice engrafted with liposarcoma cells IB111. Conditions: 20 mg/kg i.p. daily for 3 weeks, from tumor 100 mm^3. Here is the method: In order to support the in vitro results, in vivo evaluation of the anti-tumor efficacy was performed on compound (4) according to the present invention having evidenced the antitumoral activity in examples 9 and 10 above.
10 mice per group were engrafted with liposarcoma cells IB111. Mice were housed in a pathogen-free barrier facility in accordance with the regional ethics committee for animal [COMPOUND LEFT OUT] (n° CEEA-LR-12067). When tumor reached 100 mm^3, the compound of formula (I) was administered by intra peritoneal i.p. injection at the dose of 20 mg/kg daily for 3 weeks.

T2 sequence (Q00987 whole entry): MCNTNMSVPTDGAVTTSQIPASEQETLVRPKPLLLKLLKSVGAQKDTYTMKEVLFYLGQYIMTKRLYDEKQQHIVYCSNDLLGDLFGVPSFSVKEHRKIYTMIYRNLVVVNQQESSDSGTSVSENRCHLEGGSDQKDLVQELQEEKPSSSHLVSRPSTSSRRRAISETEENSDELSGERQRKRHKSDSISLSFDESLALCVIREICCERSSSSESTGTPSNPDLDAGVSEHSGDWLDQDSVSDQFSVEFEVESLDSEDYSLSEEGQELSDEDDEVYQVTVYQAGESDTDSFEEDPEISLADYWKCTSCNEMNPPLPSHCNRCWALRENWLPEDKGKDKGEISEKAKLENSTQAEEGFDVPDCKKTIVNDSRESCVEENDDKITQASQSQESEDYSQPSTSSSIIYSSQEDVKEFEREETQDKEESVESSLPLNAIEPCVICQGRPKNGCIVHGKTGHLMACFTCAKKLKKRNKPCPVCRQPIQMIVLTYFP
T1 sequence (Q00987 whole entry): as above

For the compound `Cl.c1ccc2c(-c3nccc4c3[nH]c3ccc(OC5CC5)nc34)cccc2c1` [Compound 25, 2-cyclopropoxy-6-(naphthalen-1-yl)-5H-pyrrolo[3,2-b:5,4-c′]dipyridine hydrochloride], in assay [1], the Cytoplasmic-MDM2 degradation result is recorded as “− (<25%: no degradation: indicated“−” in the table)”. In assay [2], the “efficacy on cancer cells not exhibiting recruitment of MDM2 to chromatin (cell survival)” value was “not efficient”. Further, the Chromatin-MDM2 degradation result in assay [3] was “+++ (+++≥80%)”.

Consider `COc1ccc2[nH]c3c(-c4cccc5c4CCCC5)nccc3c2n1` [Compound 14, 2-methoxy-6-(5,6,7,8-tetrahydronaphthalen-1-yl)-5H-pyrrolo[3,2-b:5,4-c′]dipyridine], for which the maximal degradation (Dmax) (in general, the largest share of the target that was removed) in assay [1] was under 25%; in assay [3] it was at least 80%. Moreover, in assay [2], the “efficacy on cancer cells not exhibiting recruitment of MDM2 to chromatin (cell survival)” value is recorded as “not efficient”.

Turning to `COc1ccc2[nH]c3c(-c4ccnc5nccnc45)nccc3c2n1` [Compound 3, 2-methoxy-6-(pyrido[2,3-b]pyrazin-8-yl)-5H-pyrrolo[3,2-b:5,4-c′]dipyridine], the Dmax was under 25% in assay [1] and 25 to 40% in assay [3].

Take `c1ccc2c(-c3nccc4c3[nH]c3ccc(OC5CC5)nc34)cccc2c1` [Compound 24, 2-cyclopropoxy-6-(naphthalen-1-yl)-5H-pyrrolo[3,2-b:5,4-c′]dipyridine]: the Dmax was under 25% in assay [1] and at least 80% in assay [3]. Moreover, the “efficacy on cancer cells not exhibiting recruitment of MDM2 to chromatin (cell survival)” value in assay [2] is recorded as “not efficient”. The negative logarithm of the IC50 (pIC50) (in general, the IC50 on a negative log10 scale, so that one unit is a factor of ten) in assay [4] was over 6.30.

For the compound `COc1ccc2[nH]c3c(-c4cccc5ccccc45)nccc3c2n1` [Compound 13, 2-methoxy-6-(naphthalen-1-yl)-5H-pyrrolo[3,2-b:5,4-c′]dipyridine sulfate], the Cytoplasmic-MDM2 degradation entry in assay [1] is given as “− (<25%: no degradation: indicated“−” in the table)”. Further, the Chromatin-MDM2 degradation entry in assay [3] (sulfate) is reported as “++ (40%≤++<80%)”.

Take `COc1ccc2[nH]c3c(-c4cccc5ccccc45)nccc3c2n1.O=P(O)(O)O` [Compound 12, 2-methoxy-6-(naphthalen-1-yl)-5H-pyrrolo[3,2-b:5,4-c′]dipyridine phosphate]: the Cytoplasmic-MDM2 degradation result in assay [1] is reported as “− (<25%: no degradation: indicated“−” in the table)”. In addition, in assay [2], the “efficacy on cancer cells not exhibiting recruitment of MDM2 to chromatin (cell survival)” value is reported as “not efficient”.

In assay [1], `COc1ccc2[nH]c3c(-c4cccc5ccccc45)nccc3c2n1.O=C(O)CC(O)(CC(=O)O)C(=O)O` [Compound 11, 2-methoxy-6-(naphthalen-1-yl)-5H-pyrrolo[3,2-b:5,4-c′]dipyridine 2-hydroxypropane-1,2,3-tricarboxylate] registered a Dmax of under 25%. In addition, the “efficacy on cancer cells not exhibiting recruitment of MDM2 to chromatin (cell survival)” value in assay [2] is given as “not efficient”. Besides, the Chromatin-MDM2 degradation result in assay [3] is “+++ (+++≥80%)”.

`COc1ccc2[nH]c3c(-c4ccc(F)c5ccccc45)nccc3c2n1.Cl` [Compound 17, 6-(4-fluoronaphthalen-1-yl)-2-methoxy-5H-pyrrolo[3,2-b:5,4-c′]dipyridine hydrochloride]: in assay [1], the Cytoplasmic-MDM2 degradation result is listed as “− (<25%: no degradation: indicated“−” in the table)”.

Consider `COc1ccc2[nH]c3c(-c4ccc(F)c5ccccc45)nccc3c2n1` [Compound 15, 6-(4-fluoronaphthalen-1-yl)-2-methoxy-5H-pyrrolo[3,2-b:5,4-c′]dipyridine], for which the greatest degradation seen (Dmax) in assay [1] was under 25%; in assay [3], 40 to 80%. In addition, in assay [2], the “efficacy on cancer cells not exhibiting recruitment of MDM2 to chromatin (cell survival)” value is on record as “not efficient”.

Regarding `Cl.Clc1ccc2[nH]c3c(-c4cccc5ccccc45)nccc3c2n1` [Compound 19, 2-chloro-6-(naphthalen-1-yl)-5H-pyrrolo[3,2-b:5,4-c′]dipyridine hydrochloride], the Cytoplasmic-MDM2 degradation entry in assay [1] is on record as “− (<25%: no degradation: indicated“−” in the table)”. Besides, in assay [2], the “efficacy on cancer cells not exhibiting recruitment of MDM2 to chromatin (cell survival)” value was “not efficient”. In assay [4], this compound showed a negative logarithm of the IC50 (pIC50) of over 6.30. Further, in assay [3], the Chromatin-MDM2 degradation result was “++ (40%≤++<80%)”.

For `COc1ccc2[nH]c3c(-c4ccnc5ccccc45)nccc3c2n1` [Compound 6, 2-methoxy-6-(quinolin-4-yl)-5H-pyrrolo[3,2-b:5,4-c′]dipyridine], the greatest degradation seen (Dmax) is under 25% in assay [1] and 25 to 40% in assay [3].

In the case of `COc1ccc2[nH]c3c(-c4cccc5ccccc45)nccc3c2n1.O=C(O)/C=C/C(=O)O` [Compound 10, 2-methoxy-6-(naphthalen-1-yl)-5H-pyrrolo[3,2-b:5,4-c′]dipyridine fumarate], in assay [1], the Cytoplasmic-MDM2 degradation entry is “− (<25%: no degradation: indicated“−” in the table)”. In addition, the “efficacy on cancer cells not exhibiting recruitment of MDM2 to chromatin (cell survival)” value in assay [2] was “not efficient”. In addition, the Chromatin-MDM2 degradation result in assay [3] was “+++ (+++≥80%)”.

For `COc1ccc2[nH]c3c(-c4cccc5c4CCCC5)nccc3c2n1.Cl` [Compound 16, 2-methoxy-6-(5,6,7,8-tetrahydronaphthalen-1-yl)-5H-pyrrolo[3,2-b:5,4-c′]dipyridine hydrochloride], in assay [1], the Cytoplasmic-MDM2 degradation entry is listed as “− (<25%: no degradation: indicated“−” in the table)”. Besides, in assay [2], the “efficacy on cancer cells not exhibiting recruitment of MDM2 to chromatin (cell survival)” value is listed as “not efficient”. Besides, the Chromatin-MDM2 degradation entry in assay [3] is listed as “+++ (+++≥80%)”.

As for `COc1ccc2[nH]c3c(-c4cccc5ccccc45)nccc3c2c1` [SP-141], the anticancer activity entry in assay [5] is “able to exert anticancer activity in p53 wild type, p53 mutant and p53 null cancer cells”. Moreover, the “binding to MDM2 protein” value in assay [6] is reported as “directly binding to MDM2 protein”. Moreover, the “inhibition of the MDM2-p53 interaction” value in assay [7] is recorded as “inhibiting the MDM2-p53 interaction”.

As for `COc1ccc2[nH]c3c(-c4cccc5cccc(F)c45)nccc3c2n1` [Compound 23, 6-(8-fluoronaphthalen-1-yl)-2-methoxy-5H-pyrrolo[3,2-b:5,4-c′]dipyridine hydrochloride], the maximal degradation (Dmax) in assay [1] was under 25%; in assay [3] it was 25 to 40%.

Consider `Clc1ccc2[nH]c3c(-c4cccc5ccccc45)nccc3c2n1` [Compound 18, 2-chloro-6-(naphthalen-1-yl)-5H-pyrrolo[3,2-b:5,4-c′]dipyridine], for which the greatest degradation seen (Dmax) is under 25% in assay [1] and 25 to 40% in assay [3].

Consider `COc1ccc2[nH]c3c(-c4cccc5ccccc45)nccc3c2n1` [Compound 1, 2-methoxy-6-(naphthalen-1-yl)-5H-pyrrolo[3,2-b:5,4-c′]dipyridine], for which, in assay [2], the “efficacy on cancer cells not exhibiting recruitment of MDM2 to chromatin (cell survival)” value was “not efficient”. Also, in assay [3], the Chromatin-MDM2 degradation result is “+++ (+++≥80%)”.

For `COc1ccc2[nH]c3c(-c4cccc5c(F)cccc45)nccc3c2n1` [Compound 21, 6-(5-fluoronaphthalen-1-yl)-2-methoxy-5H-pyrrolo[3,2-b:5,4-c′]dipyridine], the figures for the greatest degradation seen (Dmax) in assay [1] and in assay [3] were under 25% and 25 to 40%, respectively.

Consider `COc1ccc2[nH]c3c(-c4cccc5c(F)cccc45)nccc3c2n1.Cl` [Compound 22, 6-(5-fluoronaphthalen-1-yl)-2-methoxy-5H-pyrrolo[3,2-b:5,4-c′]dipyridine hydrochloride], for which the Cytoplasmic-MDM2 degradation result in assay [1] is given as “− (<25%: no degradation: indicated“−” in the table)”. The Chromatin-MDM2 degradation result in assay [3] is given as “+ (25%≤+<40%)”.

`COc1ccc2[nH]c3c(-c4cccc5ccccc45)nccc3c2n1.Cl` [Compound 4, 2-methoxy-6-(naphthalen-1-yl)-5H-pyrrolo[3,2-b:5,4-c′]dipyridine hydrochloride]: in assay [1], the Cytoplasmic-MDM2 degradation result is “− (<25%: no degradation: indicated“−” in the table)”. Besides, the “efficacy on cancer cells not exhibiting recruitment of MDM2 to chromatin (cell survival)” value in assay [2] is reported as “not efficient”. Moreover, the tumor reduction result in assay [8] was “greater than 75%”. Moreover, in assay [3], the Chromatin-MDM2 degradation result is given as “+++ (+++≥80%)”.

As to `COc1ccc2[nH]c3c(-c4cc(F)cc5ccccc45)nccc3c2n1.Cl` [Compound 20, 6-(3-fluoronaphthalen-1-yl)-2-methoxy-5H-pyrrolo[3,2-b:5,4-c′]dipyridine hydrochloride], the values for the maximal degradation (Dmax) in assay [1] and in assay [3] were under 25% and 40 to 80%, respectively. Also, the “efficacy on cancer cells not exhibiting recruitment of MDM2 to chromatin (cell survival)” value in assay [2] is given as “not efficient”. This compound had a pIC50 in assay [4] of over 6.30.

Values taken from US20260315461A1, “NEW 5H-PYRROLO[3,2-B:5,4-C']DIPYRIDINE DERIVATIVES AND 6,7,8,9-TETRAHYDRO-5H-PYRROLO[3,2-B:5,4-C']DIPYRIDINE USEFUL IN THE TREATMENT OF CANCER” (INSTITUT REGIONAL DU CANCER DE MONTPELLIER, priority 2023, published 2026).
